The values below come from patent US20170176440A1, “METHODS AND COMPOSITIONS FOR EVALUATING BREAST CANCER PATIENTS” (THE BOARD OF REGENTS OF THE UNIVERSITY OF TEXAS SYSTEM, priority 2014, published 2017).

In data set [1] the test system is pY36 of ERβ in MDA-MB-231 cells. The data set can be described thus: pY36 of endogenous ERβ in MDA-MB-231 cells treated with ERβ agonists. The class given is cell-based. The following applies: agonists 10 nM, 2 hr (FIG. 19C).
For data set [2], the system named is p300 recruitment to ERβ target promoters MDA7 and MSMB. Put plainly: p300 ChIP at ERβ target promoters in Hs578T cells. The settings on record: WT-ERβ-expressing Hs578T cells; E2 10 nM. The class given is cell-based. The procedure: For ChIP experiments in the ERβ-inducible Hs578T cells, 100 ng/ml doxcycline was added for 24 hr. […] Cells were cross-linked with 1% formaldehyde for 10 min, treated with glycine at a final concentration of 0.125 M for 5 min at room temperature, and lysed in lysis buffer (5 mM HEPES pH 9.0, 85 mM KCl, 0.5% Triton X-100) for 15 min on ice. Nuclei were resuspended in nuclei lysis buffer (50 mM Tris-HCl pH 8.0, 10 mM EDTA, 1% SDS), and the cross-linked DNA was sonicated for 10 min (with a 30 s on/off cycle) using a Bioruptor sonicator (Diagenode). The supernatant was used for ChIP as previously described (Ding et al., Mol Cell., 2008, (31)347-59).

For data set [3] the following is noted: two completed and published clinical trials; cited from earlier work.
For another data set, the target named is T1, p300 (UniProt Q09472 2-2414, limits assumed).
T1 construct: also called endogenous p300
T1 sequence (Q09472 2-2414 limits assumed): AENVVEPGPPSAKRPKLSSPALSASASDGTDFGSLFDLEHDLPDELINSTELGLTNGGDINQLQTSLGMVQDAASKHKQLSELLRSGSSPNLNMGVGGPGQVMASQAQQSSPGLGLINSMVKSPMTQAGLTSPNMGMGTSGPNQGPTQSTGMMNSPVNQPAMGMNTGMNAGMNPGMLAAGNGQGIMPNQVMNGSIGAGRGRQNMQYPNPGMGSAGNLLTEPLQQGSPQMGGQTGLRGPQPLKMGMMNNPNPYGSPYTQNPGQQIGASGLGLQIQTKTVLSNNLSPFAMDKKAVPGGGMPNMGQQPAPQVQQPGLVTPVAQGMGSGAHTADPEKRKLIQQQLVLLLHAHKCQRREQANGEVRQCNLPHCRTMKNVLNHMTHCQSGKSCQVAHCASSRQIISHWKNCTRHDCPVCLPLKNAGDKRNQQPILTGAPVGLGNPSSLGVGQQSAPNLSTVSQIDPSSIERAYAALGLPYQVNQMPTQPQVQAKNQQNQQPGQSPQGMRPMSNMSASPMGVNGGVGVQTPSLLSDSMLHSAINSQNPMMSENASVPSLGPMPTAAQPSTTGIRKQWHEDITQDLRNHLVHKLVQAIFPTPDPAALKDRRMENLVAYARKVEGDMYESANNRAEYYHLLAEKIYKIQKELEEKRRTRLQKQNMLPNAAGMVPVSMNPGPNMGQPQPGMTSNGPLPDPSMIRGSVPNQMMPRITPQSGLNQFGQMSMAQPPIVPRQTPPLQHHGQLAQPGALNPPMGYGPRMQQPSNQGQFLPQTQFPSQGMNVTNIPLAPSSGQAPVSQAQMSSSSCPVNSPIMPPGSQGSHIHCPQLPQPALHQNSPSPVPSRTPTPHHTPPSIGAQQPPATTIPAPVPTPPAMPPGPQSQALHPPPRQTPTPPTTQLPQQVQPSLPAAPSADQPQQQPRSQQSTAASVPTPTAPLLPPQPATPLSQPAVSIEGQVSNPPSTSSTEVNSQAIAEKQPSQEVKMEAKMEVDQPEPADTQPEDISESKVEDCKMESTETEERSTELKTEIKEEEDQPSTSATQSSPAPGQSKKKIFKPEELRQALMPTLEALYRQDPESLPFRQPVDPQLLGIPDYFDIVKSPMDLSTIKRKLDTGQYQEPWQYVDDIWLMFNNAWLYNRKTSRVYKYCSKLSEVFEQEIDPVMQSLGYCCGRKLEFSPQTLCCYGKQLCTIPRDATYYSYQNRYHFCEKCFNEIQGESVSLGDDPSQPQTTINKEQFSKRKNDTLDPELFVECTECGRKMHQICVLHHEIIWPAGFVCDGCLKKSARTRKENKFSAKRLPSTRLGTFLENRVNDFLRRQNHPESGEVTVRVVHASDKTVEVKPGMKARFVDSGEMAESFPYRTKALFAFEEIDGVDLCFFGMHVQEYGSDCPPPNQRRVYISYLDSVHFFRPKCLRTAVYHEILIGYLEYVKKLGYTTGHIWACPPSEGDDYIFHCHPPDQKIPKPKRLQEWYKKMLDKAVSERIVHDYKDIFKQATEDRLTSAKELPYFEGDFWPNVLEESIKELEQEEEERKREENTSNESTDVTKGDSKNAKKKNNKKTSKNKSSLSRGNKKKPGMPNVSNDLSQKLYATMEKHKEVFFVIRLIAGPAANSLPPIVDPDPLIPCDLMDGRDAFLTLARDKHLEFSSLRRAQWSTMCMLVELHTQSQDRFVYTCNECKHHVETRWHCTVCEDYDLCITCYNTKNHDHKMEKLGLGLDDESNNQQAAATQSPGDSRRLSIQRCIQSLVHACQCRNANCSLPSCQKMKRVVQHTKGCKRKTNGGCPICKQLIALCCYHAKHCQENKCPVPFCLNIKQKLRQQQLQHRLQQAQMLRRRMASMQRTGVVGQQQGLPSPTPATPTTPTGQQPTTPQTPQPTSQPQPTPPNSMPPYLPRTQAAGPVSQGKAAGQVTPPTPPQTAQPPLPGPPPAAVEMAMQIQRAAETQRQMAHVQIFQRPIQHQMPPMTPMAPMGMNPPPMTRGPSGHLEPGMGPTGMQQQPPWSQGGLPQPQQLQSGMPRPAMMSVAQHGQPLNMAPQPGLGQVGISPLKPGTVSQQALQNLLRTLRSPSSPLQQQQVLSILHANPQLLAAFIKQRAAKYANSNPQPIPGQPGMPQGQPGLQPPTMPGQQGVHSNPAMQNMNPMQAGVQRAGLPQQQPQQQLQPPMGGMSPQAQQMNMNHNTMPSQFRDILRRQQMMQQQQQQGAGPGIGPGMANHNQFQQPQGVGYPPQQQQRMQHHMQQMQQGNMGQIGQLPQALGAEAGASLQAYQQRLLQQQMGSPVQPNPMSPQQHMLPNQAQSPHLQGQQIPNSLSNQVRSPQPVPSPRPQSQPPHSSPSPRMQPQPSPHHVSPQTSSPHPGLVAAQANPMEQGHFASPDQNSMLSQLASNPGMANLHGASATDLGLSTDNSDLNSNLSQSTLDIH
Put plainly: co-IP of Flag-ERβ with endogenous p300 in HEK293T cells.

A further data set has as its target T2, Flag-ERβ (WT).
T2 chain: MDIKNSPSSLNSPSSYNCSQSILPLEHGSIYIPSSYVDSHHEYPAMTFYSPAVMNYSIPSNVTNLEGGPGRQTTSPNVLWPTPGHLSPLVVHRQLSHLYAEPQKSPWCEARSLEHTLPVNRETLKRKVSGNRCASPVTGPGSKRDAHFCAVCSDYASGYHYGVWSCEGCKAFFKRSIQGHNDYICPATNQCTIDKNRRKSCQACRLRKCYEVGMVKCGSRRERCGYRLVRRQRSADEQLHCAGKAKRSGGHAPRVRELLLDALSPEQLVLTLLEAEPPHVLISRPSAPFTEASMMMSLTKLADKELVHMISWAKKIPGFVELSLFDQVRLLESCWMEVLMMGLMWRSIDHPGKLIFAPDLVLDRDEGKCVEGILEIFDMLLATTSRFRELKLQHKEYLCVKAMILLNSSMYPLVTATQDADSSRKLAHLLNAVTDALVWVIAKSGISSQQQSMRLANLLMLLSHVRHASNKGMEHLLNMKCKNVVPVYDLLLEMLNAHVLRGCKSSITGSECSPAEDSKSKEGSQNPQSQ

The target of data set [4] is T3, ERβ pY36-containing peptide SIYIPSS(pY)VDSHHE.
T3 chain: SIYIPSSYVDSHHE

`C[C@]12CC[C@@H]3c4ccc(O)cc4CC[C@H]3[C@@H]1CC[C@@H]2O` [E2, 17-β-estradiol]: in data set [1], the “ERβ phosphorylation (pY36)” value is “enhanced”. Also, the “recruitment of p300 to the ERβ target promoters” value in data set [2] is given as “stimulated cyclic recruitment of p300”. Consider `Oc1ccc([C@H]2COc3cc(O)ccc3C2)cc1` [S-equol], for which the “safety and drug tolerance” value in data set [3] is “has been demonstrated”. For the same molecule, the “ERβ phosphorylation (pY36)” value in data set [1] is reported as “enhanced”. `N#CC(Cc1ccc(O)cc1)c1ccc(O)cc1` (stereo not drawn) [DPN, diarylpropionitrile]: in data set [1], the “ERβ phosphorylation (pY36)” value is on record as “enhanced”.

B1: Flag-ERβ (WT) (receptor)
chain: MDIKNSPSSLNSPSSYNCSQSILPLEHGSIYIPSSYVDSHHEYPAMTFYSPAVMNYSIPSNVTNLEGGPGRQTTSPNVLWPTPGHLSPLVVHRQLSHLYAEPQKSPWCEARSLEHTLPVNRETLKRKVSGNRCASPVTGPGSKRDAHFCAVCSDYASGYHYGVWSCEGCKAFFKRSIQGHNDYICPATNQCTIDKNRRKSCQACRLRKCYEVGMVKCGSRRERCGYRLVRRQRSADEQLHCAGKAKRSGGHAPRVRELLLDALSPEQLVLTLLEAEPPHVLISRPSAPFTEASMMMSLTKLADKELVHMISWAKKIPGFVELSLFDQVRLLESCWMEVLMMGLMWRSIDHPGKLIFAPDLVLDRDEGKCVEGILEIFDMLLATTSRFRELKLQHKEYLCVKAMILLNSSMYPLVTATQDADSSRKLAHLLNAVTDALVWVIAKSGISSQQQSMRLANLLMLLSHVRHASNKGMEHLLNMKCKNVVPVYDLLLEMLNAHVLRGCKSSITGSECSPAEDSKSKEGSQNPQSQ
modifications: phosphotyrosine at 36 (pY36), as phosphorylated in HEK293T cells
notes: Expressed in HEK293T cells and immunoprecipitated by the Flag tag; also called WT-ERβ; Flag-tagged WT ERβ; not shown: Flag tag
Regarding B1, the binding result with p300 was “binds”.

B2: Flag-ERβ Y36E (receptor)
chain: MDIKNSPSSLNSPSSYNCSQSILPLEHGSIYIPSSEVDSHHEYPAMTFYSPAVMNYSIPSNVTNLEGGPGRQTTSPNVLWPTPGHLSPLVVHRQLSHLYAEPQKSPWCEARSLEHTLPVNRETLKRKVSGNRCASPVTGPGSKRDAHFCAVCSDYASGYHYGVWSCEGCKAFFKRSIQGHNDYICPATNQCTIDKNRRKSCQACRLRKCYEVGMVKCGSRRERCGYRLVRRQRSADEQLHCAGKAKRSGGHAPRVRELLLDALSPEQLVLTLLEAEPPHVLISRPSAPFTEASMMMSLTKLADKELVHMISWAKKIPGFVELSLFDQVRLLESCWMEVLMMGLMWRSIDHPGKLIFAPDLVLDRDEGKCVEGILEIFDMLLATTSRFRELKLQHKEYLCVKAMILLNSSMYPLVTATQDADSSRKLAHLLNAVTDALVWVIAKSGISSQQQSMRLANLLMLLSHVRHASNKGMEHLLNMKCKNVVPVYDLLLEMLNAHVLRGCKSSITGSECSPAEDSKSKEGSQNPQSQ
notes: Expressed in HEK293T cells; also called Y36E-ERβ; Y36E mutant; not shown: Flag tag
As to B2, the binding result with p300 is recorded as “binds”.

B3: GST-EYA2 (protein)
chain: MVELVISPSLTVNSDCLDKLKFNRADAAVWTLSDRQGITKSAPLRVSQLFSRSCPRVLPRQPSTAMAAYGQTQYSAGIQQATPYTAYPPPAQAYGIPSYSIKTEDSLNHSPGQSGFLSYGSSFSTSPTGQSPYTYQMHGTTGFYQGGNGLGNAAGFGSVHQDYPSYPGFPQSQYPQYYGSSYNPPYVPASSICPSPLSTSTYVLQEASHNVPNQSSESLAGEYNTHNGPSTPAKEGDTDRPHRASDGKLRGRSKRSSDPSPAGDNEIERVFVWDLDETIIIFHSLLTGTFASRYGKDTTTSVRIGLMMEEMIFNLADTHLFFNDLEDCDQIHVDDVSSDDNGQDLSTYNFSADGFHSSAPGANLCLGSGVHGGVDWMRKLAFRYRRVKEMYNTYKNNVGGLIGTPKRETWLQLRAELEALTDLWLTHSLKALNLINSRPNCVNVLVTTTQLIPALAKVLLYGLGSVFPIENIYSATKTGKESCFERIMQRFGRKAVYVVIGDGVEEEQGAKKHNMPFWRISCHADLEALRHALELEYL
As to B3, the “in vitro dephosphorylation of immunoprecipitated Flag-ERβ, pY36 immunoblot” value in the data set with Flag-ERβ (WT) is “recombinant WT, but not mutant EYA2 completely eliminated the pY36 signal of ERβ in vitro”. Further, the “in vitro tyrosine phosphatase assay (release of free phosphate, Malachite Green)” value in data set [4] is recorded as “A pY36-containing ERβ peptide that can be dephosphorylated efficiently by recombinant WT-EYA2”.
